For one test, the system named is THP-1 cells. The experiment in a line: Cell growth inhibition assay (CellTiter-Glo), THP-1. In kind it is cell-based. The note with it: Homo sapiens. An outline of the steps: (§1)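 Leukemia lines grown in their own media were exposed for 4 days at 37° C. to 3-fold serial dilutions from 10 μM (0.1% DMSO). Viability by CellTiter-Glo ATP luminescence, corrected for background and day-0 plate; IC50 and TGI from four-parameter fit against vehicle (100%) and medium (−100%).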

The next test relates to MV-4-11 cells. As to the kind of experiment: Cell growth inhibition assay (CellTiter-Glo), MV-4-11. The class given is cell-based. The note with it: Homo sapiens, MV4-11. Summed up: as §1
In general terms: ATP-based viability assays read luminescence as a measure of living cells.

In the next test the test system is K-562 cells. The experiment in a line: Cell growth inhibition assay (CellTiter-Glo), K-562. The class given is cell-based, human. The note with it: Homo sapiens, K562. An outline of the steps: as §1

Each structure is given as a SMILES string.

As a reminder, the GI50 is the concentration at which growth is held to half of that of the control. Lower therefore signals more potent growth inhibition. For the compound `Cc1cc(N2C(=O)c3nn(C4COC4)c(C)c3C2c2ccc(Cl)cc2)cn2c(C)nnc12` (stereo not drawn) [Example 136, 4-(4-chlorophenyl)-5-(3,8-dimethyl-[1,2,4]triazolo[4,3-a]pyridin-6-yl)-3-methyl-2-(oxetan-3-yl)-4,5-dihydropyrrolo-[3,4-c]pyrazol-6(2H)-one], the GI50 came out at 80.2 nM in the test on THP-1 cells, 28.2 nM in the test with MV-4-11 cells and 335 nM in the test on K-562 cells.

Regarding `Cc1n[nH]c2c1[C@@H](c1ccc(Cl)cc1)N(c1cc(C)c3nnc(C)n3c1)C2=O` [Example 165, (R)-4-(4-chlorophenyl)-5-(3,8-dimethyl-[1,2,4]triazolo[4,3-a]pyridin-6-yl)-3-methyl-4,5-dihydropyrrolo[3,4-c]pyrazol-6(1H)-one], the concentration for 50% growth inhibition (GI50) in the test on THP-1 cells is 38.3 nM; in the test with MV-4-11 cells it was 21.7 nM; in the test with K-562 cells it was 190 nM.

On to `Cc1nn(C2CC2)c2c1C(c1ccc(F)cc1F)N(c1cc(C)c3nnc(C)n3c1)C2=O` (stereo not drawn) [Example 176, 1-cyclopropyl-4-(2,4-difluorophenyl)-5-(3,8-dimethyl-[1,2,4]triazolo[4,3-a]pyridin-6-yl)-3-methyl-4,5-dihydropyrrolo-[3,4-c]pyrazol-6(1H)-one], for which the results for the 50% growth inhibitory concentration (GI50) in the test on THP-1 cells, with MV-4-11 cells and in the test with K-562 cells were 55.6 nM, 30.3 nM and 145 nM, respectively.

In the case of `CNC(=O)n1nc(C)c2c1C(=O)N(c1cc(C)c(=O)n(C)c1)C2c1ccc(Cl)cc1` (stereo not drawn) [Example 143, 4-(4-chlorophenyl)-5-(1,5-dimethyl-6-oxo-1,6-dihydropyridin-3-yl)-N,3-dimethyl-6-oxo-5,6-dihydropyrrolo-[3,4-c]pyrazole-1(4H)-carboxamide], the figures for the GI50 in the test on THP-1 cells, with MV-4-11 cells and with K-562 cells were 300 nM, 86 nM and 1200 nM, respectively.

For `Cc1nn(C2COC2)c2c1C(c1ccc(Cl)cc1)N(c1cc(C)c(=O)n(C)c1)C2=O` (stereo not drawn) [Example 135, 4-(4-chlorophenyl)-5-(1,5-dimethyl-6-oxo-1,6-dihydropyridin-3-yl)-3-methyl-1-(oxetan-3-yl)-4,5-dihydropyrrolo-[3,4-c]pyrazol-6(1H)-one], the figures for the GI50 in the test on THP-1 cells, with MV-4-11 cells and in the test on K-562 cells were 86.1 nM, 79.9 nM and 616 nM, respectively.

For the compound `Cc1nn(C2CC2)c2c1C(c1ccc(Cl)cc1)N(c1ccc3nnn(C)c3n1)C2=O` (stereo not drawn) [Example 102, 4-(4-chlorophenyl)-1-cyclopropyl-3-methyl-5-(3-methyl-3H-[1,2,3]triazolo[4,5-b]-pyridin-5-yl)-4,5-dihydropyrrolo-[3,4-c]pyrazol-6(1H)-one], the 50% growth inhibitory concentration (GI50) with THP-1 cells turned out to be 140 nM; with MV-4-11 cells, 87.5 nM; in the test with K-562 cells, 653 nM.

Turning to `Cc1nn(C(C)C)c2c1C(c1ccc(Cl)cc1)N(c1cc(Cl)c(=O)n(C)c1)C2=O` (stereo not drawn) [Example 66, 5-(5-chloro-1-methyl-6-oxo-1,6-dihydropyridin-3-yl)-4-(4-chlorophenyl)-1-isopropyl-3-methyl-4,5-dihydropyrrolo-[3,4-c]pyrazol-6(1H)-one], the GI50 in the test with THP-1 cells was 126 nM; in the test with MV-4-11 cells it was 67.7 nM; with K-562 cells it was 908 nM.

As for `COc1nccc(-n2nc(C)c3c2C(=O)N(c2cc(C)c(=O)n(C)c2)C3c2ccc(Cl)cc2)n1` (stereo not drawn) [Example 59, 4-(4-chlorophenyl)-5-(1,5-dimethyl-6-oxo-1,6-dihydropyridin-3-yl)-1-(2-methoxypyrimidin-4-yl)-3-methyl-4,5-dihydropyrrolo[3,4-c]pyrazol-6(1H)-one], the figures for the GI50 with THP-1 cells, in the test on MV-4-11 cells and in the test with K-562 cells were 317 nM, 220 nM and 1250 nM, respectively.

Take `Cc1nn(C2COC2)c2c1C(c1ccc(Cl)cc1)N(c1cc(C)c3nnc(C)n3c1)C2=O` (stereo not drawn) [Example 137, 4-(4-chlorophenyl)-5-(3,8-dimethyl-[1,2,4]triazolo[4,3-a]pyridin-6-yl)-3-methyl-1-(oxetan-3-yl)-4,5-dihydropyrrolo[3,4-c]pyrazol-6(1H)-one]: the GI50 is 64 nM in the test with THP-1 cells, 23.1 nM in the test on MV-4-11 cells and 248 nM in the test with K-562 cells.

The record behind these values is patent publication US20160095843A1, “PYRAZOLOPYRROLIDINE DERIVATIVES AND THEIR USE IN THE TREATMENT OF DISEASE” (NOVARTIS AG, priority 2013, published 2016).
